In PMC3579927, “Identification of a Small Molecule That Selectively Inhibits Mouse PC2 over Mouse PC1/3: A Computational and Experimental Study” (PLoS ONE, 2013):

Assays:
Assay type in all cases: biochemical
[1] = target: T1, prohormone convertase 1/3 (PC1/3) (Mus musculus, UniProt P63239); assay: enzyme assay, stimulation of activity at […]
T1 construct: gene Pcsk1
T1 sequence (P63239 111-753): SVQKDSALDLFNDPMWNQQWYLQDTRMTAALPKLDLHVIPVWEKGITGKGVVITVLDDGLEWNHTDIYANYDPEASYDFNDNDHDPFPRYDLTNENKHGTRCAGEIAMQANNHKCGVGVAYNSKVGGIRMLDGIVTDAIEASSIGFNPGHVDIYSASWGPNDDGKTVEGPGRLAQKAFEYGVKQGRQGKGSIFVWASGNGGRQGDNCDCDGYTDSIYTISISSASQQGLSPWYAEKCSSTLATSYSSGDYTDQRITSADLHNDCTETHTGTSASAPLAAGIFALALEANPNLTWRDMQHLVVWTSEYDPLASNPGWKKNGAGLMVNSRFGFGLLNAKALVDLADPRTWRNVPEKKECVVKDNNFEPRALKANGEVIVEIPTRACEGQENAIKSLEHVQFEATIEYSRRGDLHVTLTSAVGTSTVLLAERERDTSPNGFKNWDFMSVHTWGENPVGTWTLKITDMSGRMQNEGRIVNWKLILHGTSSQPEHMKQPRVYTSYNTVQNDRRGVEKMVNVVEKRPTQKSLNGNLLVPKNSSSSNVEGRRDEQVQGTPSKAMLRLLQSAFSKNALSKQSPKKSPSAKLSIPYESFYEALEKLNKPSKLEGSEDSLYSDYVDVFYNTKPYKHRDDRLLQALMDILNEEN

[2] = target: T2, prohormone convertase 2 (PC2) (Mus musculus, UniProt P21661); assay: fluorogenic enzyme assay with pERTKR-amc, […] inhibition at […] and […] at […]
T2 construct: gene Pcsk2; Recombinant PC2
T2 sequence (P21661 109-637): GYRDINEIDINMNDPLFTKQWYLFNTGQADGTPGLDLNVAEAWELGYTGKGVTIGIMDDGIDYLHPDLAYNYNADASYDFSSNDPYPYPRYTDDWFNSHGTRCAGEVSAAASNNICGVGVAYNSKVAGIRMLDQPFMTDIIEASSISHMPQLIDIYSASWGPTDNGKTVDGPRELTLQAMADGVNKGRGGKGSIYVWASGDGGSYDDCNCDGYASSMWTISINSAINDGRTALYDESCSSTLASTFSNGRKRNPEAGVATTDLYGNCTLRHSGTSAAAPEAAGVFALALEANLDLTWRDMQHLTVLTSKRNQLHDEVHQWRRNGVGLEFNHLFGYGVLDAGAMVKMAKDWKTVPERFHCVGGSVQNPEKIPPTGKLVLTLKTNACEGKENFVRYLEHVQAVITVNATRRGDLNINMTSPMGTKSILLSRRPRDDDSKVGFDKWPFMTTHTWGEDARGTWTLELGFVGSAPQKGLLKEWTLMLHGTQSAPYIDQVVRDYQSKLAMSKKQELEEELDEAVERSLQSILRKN

[3] = target: T2, prohormone convertase 2 (PC2); assay: fluorogenic enzyme assay, stimulation of activity at […]; settings: read-out: % inhibition at 50 μM (negative = stimulation)
[4] = target: T2, prohormone convertase 2 (PC2); assay: fluorogenic enzyme assay with pERTKR-amc, IC50 and inhibition kinetics

CCOC(=O)C(=CN/N=c1/cc[nH]c2cc(Cl)ccc12)C(=O)OCC [BTB03195] showed an inhibition at 50 µM [1] of -41% and an inhibition at 50 µM [2] of 71%.

Compound NCCCN=c1ccc2c3c1c(O)c1c(O)ccc(=O)c1c3[nH]n2CCNCCO [JFD02062] has an inhibition at 50 µM [3] of -60%.

OC[C@@H](O)[C@H](O)[C@H](O)[C@@H](O)[C@@H]1NCCS1 [RJC00847] gave a Ki [4] of 690 ± 80 nM.
